Measurements from ChEMBL document CHEMBL5154750 (Bioorg Med Chem, 2022).

How the values were obtained:
[1] = tested on: HCT-116; assay: Cytotoxicity against human HCT-116 cells assessed as cell viability at 10 uM relative to control; assay type: functional; settings: read-out: Activity
[2] = tested on: HCT-116; assay: Cytotoxicity against human HCT-116 cells assessed as cell viability at 1 uM relative to control; assay type: functional; settings: read-out: Activity
[3] = tested on: HL-60; assay: Cytotoxicity against human HL-60 cells assessed as cell viability at 10 uM relative to control; assay type: functional; settings: read-out: Activity
[4] = tested on: HL-60; assay: Cytotoxicity against human HL-60 cells assessed as cell viability at 1 uM relative to control; assay type: functional; settings: read-out: Activity
[5] = tested on: HCT-116; assay: Cytotoxicity against human HCT-116 cells assessed as reduction in cell viability; assay type: functional, cell-based
[6] = tested on: HL-60; assay: Cytotoxicity against human HL-60 cells assessed as reduction in cell viability; assay type: functional, cell-based
[7] = tested on: HCT-116; assay: Growth inhibition of human HCT-116 cells at 1 uM relative to control; assay type: functional; set-up: scale not given: the % may be the effect or the level left
[8] = Homo sapiens, HL-60, read-out: IC50

Row | Structure (SMILES) | viability at 10 µM [1] [%] | viability at 1 µM [2] [%] | viability at 10 µM [3] [%] | viability at 1 µM [4] [%] | IC50 [5] [nM] | IC50 [6, 8] [nM] | Activity [7] [%] | IC50 ([6]; hl-60) [nM]
1 | O=C1C=C2C(I)=C[C@@H]3C[C@]2(CN3Cc2ccccc2)O1 | 1 | 5 | 0 | 4 | 60 | 350 | 80.9 | –
2 | O=C1C=C2C=C[C@@H]3C[C@]2(CN3Cc2ccccc2)O1 | 86 | 100 | 3 | 11 | – | 100 | – | –
3 | CC(C)CN1C[C@]23C[C@H]1C=CC2=CC(=O)O3 | 78 | 83 | 1 | 15 | – | – | – | –
4 | COc1cccc2c1C(=O)c1c(O)c3c(c(O)c1C2=O)C[C@@](O)(C(=O)CO)C[C@@H]3O[C@H]1C[C@H](N)[C@H](O)[C@H](C)O1 [DOXORUBICIN] | – | – | – | – | 10 | – | – | 90
5 | O=C1C=C2C=C[C@@H]3C[C@@]2(O1)[C@H]1CCCCN31 [SECURININE] | 13 | 98 | 0.4 | 8 | 8600 | 100 | – | –
